Results from US6878730B2, “Quaternary ammonium compounds” (Pharmacia & UpJohn, priority 2002, dated 2005).

Assay: Aerosol treatment for dyspnea, FEV1/FVC ratio
Format: in vivo
Settings: aerosol formulation, 50 μg every 8 hr continuously for dyspnea; after a week of treatment
Description: Ten minutes and 36 hours later, the mice are moved to whole body plethysmograph chambers. Bronchoconstriction is induced in mice by administration of an 80 mg/ml methacholine (MC) aerosol into the plethysmograph chambers for 5 minutes. The mice are allowed to inhale an aerosol containing 80 mg/ml methacholine following inhalation treatment with DPBS vehicle (Dulbecco's Phosphate Buffered Saline), or 80 mg/ml methacholine following inhalation treatment with 1.29 mg/ml of the title compound of example I. The average enhanced pause (Penh, lung resistance), corresponding to airflow resistance, is determined and statistically analyzed using Kruskal-Wallis one way ANOVA. In order to determine the baseline, saline aerosol (without methacholine) is also separately administered to the mice, treated with the compound of example I in an aerosol formulation, 50 μg every 8 hr continuously for dyspnea. After a week of treatment, the FEV1/FVC ratio improves to about 65%.

## C[N+]1(Cc2cccc(N)n2)CCC(NC(=O)[C@](O)(c2ccccc2)[C@@H]2CCC(F)(F)C2)CC1.[I-] (stereo partly drawn) [Example I, (2R)-N-[1-(6-aminopyridin-2-ylmethyl)1-methylpiperdin-4-yl]-2-[(1R)-3,3,-difluorocyclopentyl]-2-hydroxy-2-phenylacetamide iodide]
  FEV1/FVC ratio: about 65%
